{
  "source": "patent US9850538B2",
  "about": "“Methods for diagnosing and treating diabetes” (The Board of Trustees of the University of Illinois, priority 2015, dated 2017)",
  "key": {"[1]": {"system": "NOD mice", "assay": "Development of T1D in genetically susceptible NOD mice", "type": "in vivo", "details": "NOD mice injected before clinical onset, starting between 18 and 24 weeks of age"}, "[2]": {"system": "spleen cells", "assay": "Global gene expression profiling of spleen cells by microarray", "type": "in vivo, mice", "procedure": "To understand the molecular mechanisms underlying protection against T1D bestowed by TSA treatment in NOD/Ltj mice, transcriptome (gene expression profiling) of spleen cells was analyzed by global gene expression profiling using a microarray approach. To this end, total RNA was isolated from diabetic and cured mice, converted into cRNA and then hybridized to AFFYMETRIX GENECHIP Mouse Genome 430 2.0 microarrays that contain 45,000 probe sets representing 34,000 mouse genes. Three-way analysis of gene expression in untreated-non-diabetic mice, overtly diabetic mice, and those cured by TSA treatment yielded 164 differentially regulated genes, filtered by an ANOVA p-value, 0.05. These highly regulated genes were used for hierarchical clustering. Microarray data sets were deposited at Gene Expression Omnibus (accession no. GSE 26461) (Jayaraman, et al. (2013) PLoS One 8:e55074).\nPrincipal component analysis validated the up-regulation of a set of pro-inflammatory genes in uninduced spleens of overtly diabetic mice, and their repression by TSA treatment. This analysis clearly distinguished the genes that may be responsible for T1D manifestation and therefore of significant impact on the diagnosis of T1D in humans (Jayaraman, et al. (2013) PLoS One 8:e55074)."}, "[3]": {"system": "inflammatory genes such as Cela3b, Cpb1, Pnlip and Cel", "assay": "Quantitative real time-PCR of selected top hit genes", "type": "in vivo, mice", "description": "Expression levels of selected top hit genes were verified in spleens by quantitative real time-PCR using primer sets that were validated following MIQE guidelines and RNA derived from spleens of mice that were different from those used for microarray analysis. The expression of inflammatory genes such as Cela3b (elastase 3), Cpb1 (carboxyepetidase B1), Pnlip (pancreatic lipase) and Cel (carboxyl ester lipase) was prominent in the spleens of diabetic mice. […] However, Ctrl (chymotrypsin-like) gene substantially over-expressed in the exocrine pancreas was not repressed by TSA treatment, indicating the selectivity of gene regulation by chromatin remodeling in the pancreata. In addition, the mRNA levels of Pnliprp-1 (pancreatic lipase-related protein 1), Pnlilrp-2, Ctrl, Ctrc and Cpa1 were not altered by TSA treatment."}, "[4]": {"system": "spleen cells", "assay": "Flow cytometry of innate immune cell frequency in spleen", "type": "in vivo, mice", "procedure": "Insulin-producing beta cells can be destroyed by the inflammatory cells and the pro-inflammatory genes that were identified by microarray analysis and further validated by quantitative RT-PCR. Therefore, it was determined whether amelioration of T1D by TSA treatment involves alteration in the frequency of innate immune cells that are likely to express the Cela3b gene. Therefore, T1D susceptible NOD mice were injected with TSA before the clinical onset of diabetes, starting between 18 and 24 weeks of age, and spleen cells were stained with fluorochrome-labeled antibodies and analyzed by flow cytometry. The numbers of both macrophages of the CD11b+Ly6C+ phenotype and neutrophils expressing CD11b+Ly6G+ determinants, known to exert inflammatory responses and tissue damage, increased in the spleen of overtly diabetic mice when compared to prediabetic mice."}, "[5]": {"system": "elastase", "assay": "Flow cytometry of intracellular elastase in Ly6C+ and Ly6G+ spleen cells", "type": "in vivo, mice", "procedure": "It was next investigated whether there was a correlation between the numbers of inflammatory cells expressing elastase and the health status. To this end, spleen cells from diabetic mice and those treated with TSA and cured of diabetes were surface labeled with FITC labeled anti-Ly6C antibody (to stain macrophages) and anti-Ly6G antibody (to stain neutrophils). After staining, cells were fixed, permeabilized and incubated with rabbit antibody against elastase, followed by treatment with TRITC-labeled goat anti-rabbit antibody. Cells were analyzed by flow cytometry for the cell surface expression of Ly6C or Ly6G and these cells were gated and analyzed for the intracellular expression of elastase. […] Similarly, the numbers of Ly6G+ neutrophils co-expressing elastase protein were also diminished in TSA treated and cured mice. Thus, TSA treatment abrogated spontaneously occurring T1D in NOD mice, which was negatively correlated with the frequency of both Ly6C+ macrophages and Ly6G+ neutrophils that co-express elastase."}, "[6]": {"system": "islets", "assay": "Confocal imaging of inflammatory cell infiltration in pancreatic sections", "type": "in vivo", "details": "drug-treated and cured mice", "procedure": "To visualize the effect of TSA treatment on the infiltration of inflammatory cells in the pancreas, paraffin-embedded pancreatic sections were treated with antibodies against insulin, Ly6C+ macrophages and Ly6G+ neutrophils. Sections were then imaged on a confocal microscope and the images analyzed. Both Ly6C+ macrophages and Ly6G+ neutrophils were evident in the islets of diabetic mice, as identified by co-staining with an anti-insulin antibody. In contrast, both Ly6C+ macrophages and Ly6G+ neutrophils were absent in the islets of drug-treated and cured mice. […] Treatment with TSA effectively eradicated the infiltration of inflammatory cells and thereby provides protection against T1D in the mouse model."}, "[7]": {"system": "NOD mice", "details": "injection; cited from earlier work"}, "[8]": {"details": "drug administration in mice; cited from earlier work"}, "[9]": {"system": "elastase gene", "details": "cited from earlier work"}, "[10]": {"system": "islets of Langerhans", "details": "TSA treatment; cited from earlier work"}},
  "note": "Like-named read-outs stand apart in the source and are kept apart here.",
  "data": [
    {"smiles": "CC(/C=C/C(=O)NO)=C\\[C@@H](C)C(=O)c1ccc(N(C)C)cc1", "note": "[TSA, Trichostatin A]", "values": [
      {"measurement": "diabetes", "setting": "[1]", "result": "ameliorated diabetes"},
      {"measurement": "set of genes (n=17) over-expressed in spleens of acutely diabetic mice", "setting": "[2]; microarray, spleens", "result": "repressed"},
      {"measurement": "expression of lipases Pnliprp1, Pnliprp2, Cel and Pnilp functionally related to Cela3b", "setting": "[2]; regulated along with Cela3b", "result": "downregulated"},
      {"measurement": "Ctrl (chymotrypsin-like) gene expression", "setting": "[3]; over-expressed in the exocrine pancreas, pancreata", "result": "not repressed"},
      {"measurement": "mRNA level of Cpa1", "setting": "[3]; qRT-PCR", "result": "not altered"},
      {"measurement": "mRNA level of Ctrc", "setting": "[3]; qRT-PCR", "result": "not altered"},
      {"measurement": "mRNA level of Ctrl", "setting": "[3]; qRT-PCR", "result": "not altered"},
      {"measurement": "mRNA level of Pnlilrp-2", "setting": "[3]; qRT-PCR", "result": "not altered"},
      {"measurement": "mRNA level of Pnliprp-1 (pancreatic lipase-related protein 1)", "setting": "[3]; qRT-PCR", "result": "not altered"},
      {"measurement": "expression level of Cel (carboxyl ester lipase)", "setting": "[3]; qRT-PCR, spleens", "result": "reduced the expression levels of these genes substantially"},
      {"measurement": "expression level of Cela3b (elastase 3)", "setting": "[3]; qRT-PCR, spleens", "result": "reduced the expression levels of these genes substantially"},
      {"measurement": "expression level of Cpb1 (carboxyepetidase B1)", "setting": "[3]; qRT-PCR, spleens", "result": "reduced the expression levels of these genes substantially"},
      {"measurement": "expression level of Pnlip (pancreatic lipase)", "setting": "[3]; qRT-PCR, spleens", "result": "reduced the expression levels of these genes substantially"},
      {"measurement": "frequency of CD11b+F4/80+ macrophages", "setting": "[4]; spleen, flow cytometry", "result": "did not affect the frequency"},
      {"measurement": "frequency of CD11b+Ly6C+ macrophages", "setting": "[4]; spleen, flow cytometry", "result": "reduced the frequency"},
      {"measurement": "frequency of CD11b+Ly6G+ neutrophils", "setting": "[4]; spleen, flow cytometry", "result": "reduced the frequency"},
      {"measurement": "numbers of dendritic cells expressing CD11c determinant", "setting": "[4]; spleens, versus prediabetic and diabetic mice", "result": "Essentially, the same numbers"},
      {"measurement": "numbers of Ly6G+ neutrophils co-expressing elastase protein", "setting": "[5]; spleens of TSA treated and cured mice", "result": "diminished"},
      {"measurement": "numbers of Ly6C+ macrophages that contained elastase in the cytoplasm", "setting": "[5]; spleens of cured versus diabetic mice", "result": "significantly lower numbers"},
      {"measurement": "Ly6C+ macrophages in the islets", "setting": "[6]", "result": "absent"},
      {"measurement": "Ly6G+ neutrophils in the islets", "setting": "[6]", "result": "absent"},
      {"measurement": "development of T1D", "setting": "[7]", "result": "prevents the development of T1D"},
      {"measurement": "side effects or gross pathological changes", "setting": "[8]", "result": "did not result in obvious side effects or gross pathological changes"},
      {"measurement": "expression of the elastase gene", "setting": "[9]; peripheral lymphoid organ spleen", "result": "significantly lowered"},
      {"measurement": "expression of the elastase gene", "setting": "[9]; target organ pancreas", "result": "significantly lowered"},
      {"measurement": "beta cells producing insulin", "setting": "[10]", "result": "preservation of the beta cells"},
      {"measurement": "inflammation surrounding the islets of Langerhans", "setting": "[10]", "result": "eradication of inflammation surrounding the islets of Langerhans"}
    ]}
  ]
}
